In US9624241B2 (Incyte Corporation, priority 2013, dated 2017):
Read-outs that look alike come from different tables or passages of the source.

What was measured:
BRD4-BD2 = BRD4-BD2 (Homo sapiens (Human), UniProt O60885); assay: BRD4 AlphaScreen Assay (Example A2), BRD4-BD2; assay type: binding; conditions: read-out: BRD4 BD-2 enzyme IC50
Summary of the method: (§1)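 Displacement of 50 nM biotinylated tetra-acetylated histone H4 peptide from BRD4 BD1 or BD2 (<1 nM) in Tris-HCl pH 7.5 buffer with DTT. Inhibitors serially diluted in DMSO, added first, then incubated 75 min in the dark at room temperature before AlphaScreen read. IC50 fitted from percent control activity versus log concentration.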

BRD4-BD1 = BRD4-BD1 (Homo sapiens (Human), UniProt O60885); assay: BRD4 AlphaScreen Assay (Example A2), BRD4-BD1; assay type: binding; conditions: Assay A2, AlphaScreen, BRD4-BD1; read-out: BRD4 BD-1 enzyme IC50
Summary of the method: as §1

[1] = Assay A2, AlphaScreen, BRD4-BD2

Compound	IC50 (BRD4-BD2; [1]) [nM]	IC50 (BRD4-BD1) [nM]	IC50 (BRD4-BD2) [nM]
Cc1noc(C)c1-c1ccc2[nH]c(=O)n3c2c1OCC3(C)c1ccccn1 (stereo not drawn) [Example 69, 7-(3,5-Dimethylisoxazol-4-yl)-4-methyl-4-pyridin-2-yl-4,5-dihydroimidazo[1,5,4-de][1,4]benzoxazin-2(1H)-one]	< 100	< 100	–
Cc1noc(C)c1-c1ccc2[nH]c(=O)n3c2c1OCC3c1cccc[n+]1[O-] (stereo not drawn) [Example 16, 7-(3,5-Dimethylisoxazol-4-yl)-4-(1-oxidopyridin-2-yl)-4,5-dihydroimidazo[1,5,4-de][1,4]benzoxazin-2(1H)-one]	< 100	< 100	–
Cc1noc(C)c1-c1cc(CNC(=O)Cc2ccccc2)c2[nH]c(=O)n3c2c1OC[C@@H]3c1ccccn1 [Example 139, N-{[(4S)-7-(3,5-Dimethylisoxazol-4-yl)-2-oxo-4-pyridin-2-yl-1,2,4,5-tetrahydroimidazo[1,5,4-de][1,4]benzoxazin-9-yl]methyl}-2-phenylacetamide]	< 100	< 100	–
Cc1noc(C)c1-c1ccc2nc(C(N)=O)n3c2c1OC[C@@H]3c1ccccn1 [Example 96, (4S)-7-(3,5-Dimethylisoxazol-4-yl)-4-pyridin-2-yl-4,5-dihydroimidazo[1,5,4-de][1,4]benzoxazine-2-carboxamide]	< 100	< 100	–
Cc1noc(C)c1-c1ccc2[nH]c(=O)n3c2c1OCC3c1cccnc1CN (stereo not drawn) [Example 130, 4-[2-(Aminomethyl)pyridin-3-yl]-7-(3,5-dimethylisoxazol-4-yl)-4,5-dihydroimidazo[1,5,4-de][1,4]benzoxazin-2(1H)-one bis(trifluoroacetate)]	< 100	< 100	–
Cc1noc(C)c1-c1cc(C#N)c2[nH]c(=O)n3c2c1OCC3c1ccccn1 (stereo not drawn) [Example 269A, 7-(3,5-dimethylisoxazol-4-yl)-2-oxo-4-pyridin-2-yl-1,2,4,5-tetrahydroimidazo[1,5,4-de][1,4]benzoxazine-9-carbonitrile]	< 100	< 100	–
Cc1noc(C)c1-c1cc(CNC(C)C)c2[nH]c(=O)n3c2c1OCC3c1ccccn1 (stereo not drawn) [Example 253, 7-(3,5-Dimethylisoxazol-4-yl)-9-[(isopropylamino)methyl]-4-pyridin-2-yl-4,5-dihydroimidazo[1,5,4-de][1,4]benzoxazin-2(1H)-one]	100 to 1000	100 to 1000	–
CNC(=O)C1(c2ccccn2)COc2c(-c3c(C)noc3C)ccc3[nH]c(=O)n1c23 (stereo not drawn) [Example 71, 7-(3,5-Dimethylisoxazol-4-yl)-N-methyl-2-oxo-4-pyridin-2-yl-1,2,4,5-tetrahydroimidazo[1,5,4-de][1,4]benzoxazine-4-carboxamide 2,2,2-trifluoroacetate]	–	100 to 1000	< 100
Cc1noc(C)c1-c1ccc2[nH]c(=O)n3c2c1OCC3c1cncc(F)c1 (stereo not drawn) [Example 78, 7-(3,5-dimethylisoxazol-4-yl)-4-(5-fluoropyridin-3-yl)-4,5-dihydroimidazo[1,5,4-de][1,4]benzoxazin-2(1H)-one]	< 100	< 100	–
Cc1noc(C)c1-c1cc(F)c2nc(N3CCC(O)C3)n3c2c1OCC3c1cccnc1 (stereo not drawn) [Example 157, 1-[7-(3,5-Dimethylisoxazol-4-yl)-9-fluoro-4-pyridin-3-yl-4,5-dihydroimidazo[1,5,4-de][1,4]benzoxazin-2-yl]pyrrolidin-3-ol]	< 100	< 100	–
Cc1noc(C)c1-c1ccc2[nH]c(=O)n3c2c1OCC3c1cccnc1C(=O)NC1CC1 (single isomer, unassigned) [Example 134, N-Cyclopropyl-3-[7-(3,5-dimethylisoxazol-4-yl)-2-oxo-1,2,4,5-tetrahydroimidazo[1,5,4-de][1,4]benzoxazin-4-yl]pyridine-2-carboxamide]	< 100	< 100	–
Cc1noc(C)c1-c1cc(F)c2nc(N(C)C)n3c2c1OCC3c1cccnc1 (stereo not drawn) [Example 156, 7-(3,5-Dimethylisoxazol-4-yl)-9-fluoro-N,N-dimethyl-4-pyridin-3-yl-4,5-dihydroimidazo[1,5,4-de][1,4]benzoxazin-2-amine]	< 100	100 to 1000	–
Cc1noc(C)c1-c1cc(CNS(C)(=O)=O)c2[nH]c(=O)n3c2c1OC[C@@H]3c1ccccn1 [Example 141, N-{[(4S)-7-(3,5-Dimethylisoxazol-4-yl)-2-oxo-4-pyridin-2-yl-1,2,4,5-tetrahydroimidazo[1,5,4-de][1,4]benzoxazin-9-yl]methyl}methanesulfonamide]	< 100	< 100	–
Cc1noc(C)c1-c1ccc2nc(C3CCCN(C(=O)C4CC4)C3)n3c2c1OC[C@@H]3c1ccccn1 (mixture of isomers) [Example 118, (4S)-2-[1-(cyclopropylcarbonyl)piperidin-3-yl]-7-(3,5-dimethylisoxazol-4-yl)-4-pyridin-2-yl-4,5-dihydroimidazo[1,5,4-de][1,4]benzoxazine (mixture of diastereomers)]	< 100	< 100	–
CCS(=O)(=O)NC1CN(c2nc3ccc(-c4c(C)noc4C)c4c3n2[C@@H](c2ccccn2)CO4)C1 [Example 238, N-{1-[(4S)-7-(3,5-dimethylisoxazol-4-yl)-4-pyridin-2-yl-4,5-dihydroimidazo[1,5,4-de][1,4]benzoxazin-2-yl]azetidin-3-yl}ethanesulfonamide]	< 100	< 100	–
Cc1noc(C)c1-c1ccc2[nH]c(=O)n3c2c1OC(CO)C3c1ccccn1 (single isomer, unassigned) [Example 62B, 7-(3,5-Dimethylisoxazol-4-yl)-5-(hydroxymethyl)-4-pyridin-2-yl-4,5-dihydroimidazo[1,5,4-de][1,4]benzoxazin-2(1H)-one]	< 100	< 100	–
Cc1noc(C)c1-c1ccc2[nH]c(=O)n3c2c1OCC3c1cccnc1C#N (racemic) [Example 126, 3-[7-(3,5-Dimethylisoxazol-4-yl)-2-oxo-1,2,4,5-tetrahydroimidazo[1,5,4-de][1,4]benzoxazin-4-yl]pyridine-2-carbonitrile]	< 100	100 to 1000	–
Cc1noc(C)c1-c1cc(-c2ccnn2C)c2[nH]c(=O)n3c2c1OC[C@@H]3c1ccccn1 [Example 85, (4S)-7-(3,5-dimethylisoxazol-4-yl)-9-(1-methyl-1H-pyrazol-5-yl)-4-pyridin-2-yl-4,5-dihydroimidazo[1,5,4-de][1,4]benzoxazin-2(1H)-one 2,2,2-trifluoroacetate]	100 to 1000	1000 to 10000	–
Cc1noc(C)c1-c1ccc2nc(C(=O)N3CCOCC3)n3c2c1OC[C@@H]3c1ccccn1 [Example 94, (4S)-7-(3,5-Dimethylisoxazol-4-yl)-2-(morpholin-4-ylcarbonyl)-4-pyridin-2-yl-4,5-dihydroimidazo[1,5,4-de][1,4]benzoxazine]	< 100	< 100	–
Cc1noc(C)c1-c1ccc2nc(C3CCN(S(C)(=O)=O)C3)n3c2c1OC[C@@H]3c1ccccn1 (mixture of isomers) [Example 115, (4S)-7-(3,5-dimethylisoxazol-4-yl)-2-[1-(methylsulfonyl)pyrrolidin-3-yl]-4-pyridin-2-yl-4,5-dihydroimidazo[1,5,4-de][1,4]benzoxazine (mixture of diastereomers)]	< 100	< 100	–
Cc1n[nH]c(C)c1-c1cc(-c2c(C)noc2C)c2c3c1[nH]c(=O)n3C(c1ccccn1)CO2 (stereo not drawn) [Example 258, 7-(3,5-dimethylisoxazol-4-yl)-9-(3,5-dimethyl-1H-pyrazol-4-yl)-4-pyridin-2-yl-4,5-dihydroimidazo[1,5,4-de][1,4]benzoxazin-2(1H)-one]	100 to 1000	1000 to 10000	–
Cc1noc(C)c1-c1cc(Br)c2[nH]c(=O)n3c2c1OCC3c1ccccn1 (single isomer, unassigned) [Example 267A, 9-bromo-7-(3,5-dimethylisoxazol-4-yl)-4-pyridin-2-yl-4,5-dihydroimidazo[1,5,4-de][1,4]benzoxazin-2(1H)-one]	1000 to 10000	1000 to 10000	–
COCC(=O)NCc1cc(-c2c(C)noc2C)c2c3c1[nH]c(=O)n3[C@@H](c1ccccn1)CO2 [Example 140, N-{[(4S)-7-(3,5-Dimethylisoxazol-4-yl)-2-oxo-4-pyridin-2-yl-1,2,4,5-tetrahydroimidazo[1,5,4-de][1,4]benzoxazin-9-yl]methyl}-2-methoxyacetamide]	< 100	< 100	–
CNC(=O)c1nc2ccc(-c3c(C)noc3C)c3c2n1[C@@H](c1ccccn1)CO3 [Example 95, (4S)-7-(3,5-Dimethylisoxazol-4-yl)-N-methyl-4-pyridin-2-yl-4,5-dihydroimidazo[1,5,4-de][1,4]benzoxazine-2-carboxamide]	< 100	< 100	–
Cc1noc(C)c1-c1ccc2nc(C3CCN(C(=O)C4CC4)CC3)n3c2c1OC[C@@H]3c1ccccn1 [Example 111, (4S)-2-[1-(cyclopropylcarbonyl)piperidin-4-yl]-7-(3,5-dimethylisoxazol-4-yl)-4-pyridin-2-yl-4,5-dihydroimidazo[1,5,4-de][1,4]benzoxazine]	< 100	< 100	–
Cc1noc(C)c1-c1ccc2nc(N3CC[C@@H](N(C)C(=O)CC#N)C3)n3c2c1OC[C@@H]3c1ccccn1 [Example 152, 2-Cyano-N-{(3R)-1-[(4S)-7-(3,5-dimethylisoxazol-4-yl)-4-pyridin-2-yl-4,5-dihydroimidazo[1,5,4-de][1,4]benzoxazin-2-yl]pyrrolidin-3-yl}-N-methylacetamide]	< 100	< 100	–
Cc1noc(C)c1-c1cc(CNC(=O)NC(C)C)c2[nH]c(=O)n3c2c1OC[C@@H]3c1ccccn1 [Example 142, N-{[(4S)-7-(3,5-Dimethylisoxazol-4-yl)-2-oxo-4-pyridin-2-yl-1,2,4,5-tetrahydroimidazo[1,5,4-de][1,4]benzoxazin-9-yl]methyl}-N′-isopropylurea]	< 100	100 to 1000	–
